Drawing on ChEMBL document CHEMBL5625261, “Cytotoxic effects of kinetin riboside and its selected analogues on cancer cell lines” (Bioorg Med Chem Lett, 2024), this text covers IC50 for three compounds.

The term IC50 denotes the concentration that inhibits the measured activity by half.

The first data set has as its system HeLa. Description: Cytotoxicity against human HeLa cells assessed as reduction in cell viability incubated for 72 hrs by MTT assay. The data set is classed as functional, cell-based.
Details: not given
In general terms: Tetrazolium dyes change colour on reduction, which living cells bring about.
Take `Nc1nc(NCc2ccco2)nc2c1ncn2[C@@H]1O[C@H](CO)[C@@H](O)[C@H]1O`: the concentration for half-maximal inhibition (IC50) was over 100 µM.
In the case of `Nc1nc(NCc2ccco2)c2ncn([C@@H]3O[C@H](CO)[C@@H](O)[C@H]3O)c2n1`, the IC50 is over 100 µM.
For the compound `OC[C@H]1O[C@@H](n2cnc3c(NCc4ccco4)ncnc32)C[C@@H]1O`, the 50% inhibitory concentration (IC50) was over 100 µM.

In a further data set the test system is MIA PaCa-2. The experiment in a line: Cytotoxicity against human MIA PaCa-2 cells assessed as reduction in cell viability incubated for 72 hrs by MTT assay. As to conditions: MIA PaCa-2, 72 h. The data set is classed as functional, cell-based.
With `Nc1nc(NCc2ccco2)nc2c1ncn2[C@@H]1O[C@H](CO)[C@@H](O)[C@H]1O`, the concentration for half-maximal inhibition (IC50) is over 100 µM.
As for `Nc1nc(NCc2ccco2)c2ncn([C@@H]3O[C@H](CO)[C@@H](O)[C@H]3O)c2n1`, the concentration for half-maximal inhibition (IC50) was over 100 µM.
Take `OC[C@H]1O[C@@H](n2cnc3c(NCc4ccco4)ncnc32)C[C@@H]1O`: the IC50 is over 100 µM.

In another data set the test system is MIA PaCa-2. The experiment in a line: Cytotoxicity against human MIA PaCa-2 cells assessed as reduction in cell viability incubated for 48 hrs by MTT assay. As to conditions: MIA PaCa-2, 48 h. It is filed as functional, cell-based.
Regarding `Nc1nc(NCc2ccco2)nc2c1ncn2[C@@H]1O[C@H](CO)[C@@H](O)[C@H]1O`, the 50% inhibitory concentration (IC50) was over 100 µM.
For the compound `Nc1nc(NCc2ccco2)c2ncn([C@@H]3O[C@H](CO)[C@@H](O)[C@H]3O)c2n1`, the IC50 was over 100 µM.
Regarding `OC[C@H]1O[C@@H](n2cnc3c(NCc4ccco4)ncnc32)C[C@@H]1O`, the IC50 was over 100 µM.

The subject of the next data set is Caco-2. The experiment in a line: Cytotoxicity against human Caco-2 cells assessed as reduction in cell viability incubated for 48 hrs by MTT assay. It is filed as functional, cell-based. As to conditions: Caco-2, 48 h.
For `Nc1nc(NCc2ccco2)nc2c1ncn2[C@@H]1O[C@H](CO)[C@@H](O)[C@H]1O`, the IC50 was over 100 µM.
On to `Nc1nc(NCc2ccco2)c2ncn([C@@H]3O[C@H](CO)[C@@H](O)[C@H]3O)c2n1`, for which the IC50 is over 100 µM.
On to `OC[C@H]1O[C@@H](n2cnc3c(NCc4ccco4)ncnc32)C[C@@H]1O`, for which the IC50 is over 100 µM.

In another data set the test system is Caco-2. The experiment in a line: Cytotoxicity against human Caco-2 cells assessed as reduction in cell viability incubated for 24 hrs by MTT assay. It is filed as functional, cell-based. As to conditions: Caco-2, 24 h.
As to `Nc1nc(NCc2ccco2)nc2c1ncn2[C@@H]1O[C@H](CO)[C@@H](O)[C@H]1O`, the IC50 is over 100 µM.
On the same count and under the same terms, as for `Nc1nc(NCc2ccco2)c2ncn([C@@H]3O[C@H](CO)[C@@H](O)[C@H]3O)c2n1`, the figure is over 100 µM; as for `OC[C@H]1O[C@@H](n2cnc3c(NCc4ccco4)ncnc32)C[C@@H]1O`, over 100 µM.

Tested on in the next data set: not listed separately
Description: Cytotoxicity against human MRC5 cells assessed as reduction in cell viability incubated for 24 hrs by MTT assay. The data set is classed as toxicity, cell-based.
Details: not given
Turning to `Nc1nc(NCc2ccco2)nc2c1ncn2[C@@H]1O[C@H](CO)[C@@H](O)[C@H]1O`, the concentration for half-maximal inhibition (IC50) at 24 h is over 100 µM.
For `Nc1nc(NCc2ccco2)c2ncn([C@@H]3O[C@H](CO)[C@@H](O)[C@H]3O)c2n1`, the IC50 at 24 h was over 100 µM.
On to `OC[C@H]1O[C@@H](n2cnc3c(NCc4ccco4)ncnc32)C[C@@H]1O`, for which the IC50 at 24 h was over 100 µM.

For a further data set, the system named is MIA PaCa-2. The experiment in a line: Cytotoxicity against human MIA PaCa-2 cells assessed as reduction in cell viability incubated for 24 hrs by MTT assay. The data set is classed as functional, cell-based. As to conditions: MIA PaCa-2, 24 h.
Consider `Nc1nc(NCc2ccco2)nc2c1ncn2[C@@H]1O[C@H](CO)[C@@H](O)[C@H]1O`, for which the 50% inhibitory concentration (IC50) was over 100 µM.
For `Nc1nc(NCc2ccco2)c2ncn([C@@H]3O[C@H](CO)[C@@H](O)[C@H]3O)c2n1`, the concentration for half-maximal inhibition (IC50) was over 100 µM.
Still for that read-out and setting: next, `OC[C@H]1O[C@@H](n2cnc3c(NCc4ccco4)ncnc32)C[C@@H]1O`: over 100 µM.

Tested on in another data set: not listed separately
The experiment in a line: Cytotoxicity against human MRC5 cells assessed as reduction in cell viability incubated for 48 hrs by MTT assay.
Details: not given
It is filed as toxicity, cell-based.
Regarding `Nc1nc(NCc2ccco2)nc2c1ncn2[C@@H]1O[C@H](CO)[C@@H](O)[C@H]1O`, the IC50 at 48 h is over 100 µM.
Regarding `Nc1nc(NCc2ccco2)c2ncn([C@@H]3O[C@H](CO)[C@@H](O)[C@H]3O)c2n1`, the IC50 at 48 h is over 100 µM.
As to `OC[C@H]1O[C@@H](n2cnc3c(NCc4ccco4)ncnc32)C[C@@H]1O`, the concentration for half-maximal inhibition (IC50) at 48 h is over 100 µM.

The test system of another data set is OVCAR-3. Description: Cytotoxicity against human OVCAR-3 cells assessed as reduction in cell viability incubated for 72 hrs by MTT assay. The data set is classed as functional, cell-based. The settings on record: OVCAR-3, 72 h.
As to `Nc1nc(NCc2ccco2)nc2c1ncn2[C@@H]1O[C@H](CO)[C@@H](O)[C@H]1O`, the half-maximal inhibitory concentration (IC50) was over 100 µM.
On to `Nc1nc(NCc2ccco2)c2ncn([C@@H]3O[C@H](CO)[C@@H](O)[C@H]3O)c2n1`, for which the half-inhibitory concentration (IC50) was over 100 µM.
Still for that read-out and setting: next, `OC[C@H]1O[C@@H](n2cnc3c(NCc4ccco4)ncnc32)C[C@@H]1O`: over 100 µM.

The next data set deals with MCF7. The experiment in a line: Cytotoxicity against human MCF7 cells assessed as reduction in cell viability incubated for 72 hrs by MTT assay. As to conditions: MCF7, 72 h. It is filed as functional, cell-based.
Turning to `Nc1nc(NCc2ccco2)nc2c1ncn2[C@@H]1O[C@H](CO)[C@@H](O)[C@H]1O`, the IC50 was over 100 µM.
`Nc1nc(NCc2ccco2)c2ncn([C@@H]3O[C@H](CO)[C@@H](O)[C@H]3O)c2n1`: the IC50 is over 100 µM.
The same measure, in the same setting: next, `OC[C@H]1O[C@@H](n2cnc3c(NCc4ccco4)ncnc32)C[C@@H]1O`: over 100 µM.

Another data set concerns MCF7. Description: Cytotoxicity against human MCF7 cells assessed as reduction in cell viability incubated for 48 hrs by MTT assay. The data set is classed as functional, cell-based. The settings on record: MCF7, 48 h.
As for `Nc1nc(NCc2ccco2)nc2c1ncn2[C@@H]1O[C@H](CO)[C@@H](O)[C@H]1O`, the IC50 is over 100 µM.
The same measure, in the same setting: next, `Nc1nc(NCc2ccco2)c2ncn([C@@H]3O[C@H](CO)[C@@H](O)[C@H]3O)c2n1`: over 100 µM; `OC[C@H]1O[C@@H](n2cnc3c(NCc4ccco4)ncnc32)C[C@@H]1O`: over 100 µM.

Tested on in a further data set: not listed separately
The experiment in a line: Cytotoxicity against human MRC5 cells assessed as reduction in cell viability incubated for 72 hrs by MTT assay. It is filed as toxicity, cell-based.
Details: not given
As to `Nc1nc(NCc2ccco2)nc2c1ncn2[C@@H]1O[C@H](CO)[C@@H](O)[C@H]1O`, the IC50 at 72 h is over 100 µM.
Take `Nc1nc(NCc2ccco2)c2ncn([C@@H]3O[C@H](CO)[C@@H](O)[C@H]3O)c2n1`: the half-inhibitory concentration (IC50) at 72 h is over 100 µM.
Turning to `OC[C@H]1O[C@@H](n2cnc3c(NCc4ccco4)ncnc32)C[C@@H]1O`, the IC50 at 72 h is over 100 µM.

In the next data set the test system is HeLa. The experiment in a line: Cytotoxicity against human HeLa cells assessed as reduction in cell viability incubated for 48 hrs by MTT assay. The data set is classed as functional, cell-based.
Details: not given
For `Nc1nc(NCc2ccco2)nc2c1ncn2[C@@H]1O[C@H](CO)[C@@H](O)[C@H]1O`, the IC50 is over 100 µM.
Same read-out and setting: as for `Nc1nc(NCc2ccco2)c2ncn([C@@H]3O[C@H](CO)[C@@H](O)[C@H]3O)c2n1`, the figure is over 100 µM.
On the same count and under the same terms, next, `OC[C@H]1O[C@@H](n2cnc3c(NCc4ccco4)ncnc32)C[C@@H]1O`: over 100 µM.

The test system of a further data set is Caco-2. Description: Cytotoxicity against human Caco-2 cells assessed as reduction in cell viability incubated for 72 hrs by MTT assay. The data set is classed as functional, cell-based. The settings on record: Caco-2, 72 h.
Take `Nc1nc(NCc2ccco2)nc2c1ncn2[C@@H]1O[C@H](CO)[C@@H](O)[C@H]1O`: the half-inhibitory concentration (IC50) is over 100 µM.
For `Nc1nc(NCc2ccco2)c2ncn([C@@H]3O[C@H](CO)[C@@H](O)[C@H]3O)c2n1`, the IC50 is over 100 µM.
The same measure, in the same setting: next, `OC[C@H]1O[C@@H](n2cnc3c(NCc4ccco4)ncnc32)C[C@@H]1O`: over 100 µM.

A further data set has as its system HeLa. The experiment in a line: Cytotoxicity against human HeLa cells assessed as reduction in cell viability incubated for 24 hrs by MTT assay. It is filed as functional, cell-based.
Details: not given
Consider `Nc1nc(NCc2ccco2)nc2c1ncn2[C@@H]1O[C@H](CO)[C@@H](O)[C@H]1O`, for which the IC50 was over 100 µM.
As to `Nc1nc(NCc2ccco2)c2ncn([C@@H]3O[C@H](CO)[C@@H](O)[C@H]3O)c2n1`, the IC50 is over 100 µM.
The same measure, in the same setting: as for `OC[C@H]1O[C@@H](n2cnc3c(NCc4ccco4)ncnc32)C[C@@H]1O`, the figure is over 100 µM.

In a further data set the test system is MCF7. The experiment in a line: Cytotoxicity against human MCF7 cells assessed as reduction in cell viability incubated for 24 hrs by MTT assay. It is filed as functional, cell-based. As to conditions: MCF7, 24 h.
In the case of `Nc1nc(NCc2ccco2)nc2c1ncn2[C@@H]1O[C@H](CO)[C@@H](O)[C@H]1O`, the 50% inhibitory concentration (IC50) is over 100 µM.
As for `Nc1nc(NCc2ccco2)c2ncn([C@@H]3O[C@H](CO)[C@@H](O)[C@H]3O)c2n1`, the IC50 was over 100 µM.
On the same count and under the same terms, as for `OC[C@H]1O[C@@H](n2cnc3c(NCc4ccco4)ncnc32)C[C@@H]1O`, the figure is over 100 µM.

Another data set has as its system OVCAR-3. Description: Cytotoxicity against human OVCAR-3 cells assessed as reduction in cell viability incubated for 24 hrs by MTT assay. The data set is classed as functional, cell-based. The settings on record: OVCAR-3, 24 h.
As to `Nc1nc(NCc2ccco2)nc2c1ncn2[C@@H]1O[C@H](CO)[C@@H](O)[C@H]1O`, the IC50 is over 100 µM.
With `Nc1nc(NCc2ccco2)c2ncn([C@@H]3O[C@H](CO)[C@@H](O)[C@H]3O)c2n1`, the IC50 is over 100 µM.
As for `OC[C@H]1O[C@@H](n2cnc3c(NCc4ccco4)ncnc32)C[C@@H]1O`, the concentration for half-maximal inhibition (IC50) is over 100 µM.

For the next data set, the system named is OVCAR-3. The experiment in a line: Cytotoxicity against human OVCAR-3 cells assessed as reduction in cell viability incubated for 48 hrs by MTT assay. The settings on record: OVCAR-3, 48 h. The data set is classed as functional, cell-based.
Turning to `Nc1nc(NCc2ccco2)nc2c1ncn2[C@@H]1O[C@H](CO)[C@@H](O)[C@H]1O`, the 50% inhibitory concentration (IC50) is over 100 µM.
Turning to `Nc1nc(NCc2ccco2)c2ncn([C@@H]3O[C@H](CO)[C@@H](O)[C@H]3O)c2n1`, the IC50 is over 100 µM.
As to `OC[C@H]1O[C@@H](n2cnc3c(NCc4ccco4)ncnc32)C[C@@H]1O`, the 50% inhibitory concentration (IC50) is over 100 µM.
